Structures are written as SMILES.

Type in all cases: biochemical
The target in assay [1] is T1, MAO-B (Mus musculus, UniProt Q8BW75).
T1 construct: gene Maob
T1 sequence (Q8BW75 2-520): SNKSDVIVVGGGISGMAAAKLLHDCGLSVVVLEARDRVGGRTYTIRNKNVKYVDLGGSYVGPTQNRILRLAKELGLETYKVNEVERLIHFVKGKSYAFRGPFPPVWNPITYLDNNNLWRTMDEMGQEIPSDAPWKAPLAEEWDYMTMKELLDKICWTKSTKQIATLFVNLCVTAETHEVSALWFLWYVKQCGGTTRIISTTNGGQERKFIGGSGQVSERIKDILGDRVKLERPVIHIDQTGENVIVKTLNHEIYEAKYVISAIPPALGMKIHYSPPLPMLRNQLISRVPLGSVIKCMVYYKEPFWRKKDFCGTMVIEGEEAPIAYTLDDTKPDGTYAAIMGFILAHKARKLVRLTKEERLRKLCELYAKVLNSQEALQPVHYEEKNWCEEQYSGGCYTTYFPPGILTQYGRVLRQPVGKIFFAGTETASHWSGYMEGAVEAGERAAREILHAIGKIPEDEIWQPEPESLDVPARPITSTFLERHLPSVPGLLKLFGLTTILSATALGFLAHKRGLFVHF
In words: residual MAO-B activity at […], fluorescent kynuramine assay in crude mouse brain mitochondria. The following applies: read-out: MAO-B, % ± SD.

Assay [2] concerns the target T2, MAO-A (Mus musculus, UniProt Q64133).
T2 construct: gene Maoa
T2 sequence (Q64133 1-526): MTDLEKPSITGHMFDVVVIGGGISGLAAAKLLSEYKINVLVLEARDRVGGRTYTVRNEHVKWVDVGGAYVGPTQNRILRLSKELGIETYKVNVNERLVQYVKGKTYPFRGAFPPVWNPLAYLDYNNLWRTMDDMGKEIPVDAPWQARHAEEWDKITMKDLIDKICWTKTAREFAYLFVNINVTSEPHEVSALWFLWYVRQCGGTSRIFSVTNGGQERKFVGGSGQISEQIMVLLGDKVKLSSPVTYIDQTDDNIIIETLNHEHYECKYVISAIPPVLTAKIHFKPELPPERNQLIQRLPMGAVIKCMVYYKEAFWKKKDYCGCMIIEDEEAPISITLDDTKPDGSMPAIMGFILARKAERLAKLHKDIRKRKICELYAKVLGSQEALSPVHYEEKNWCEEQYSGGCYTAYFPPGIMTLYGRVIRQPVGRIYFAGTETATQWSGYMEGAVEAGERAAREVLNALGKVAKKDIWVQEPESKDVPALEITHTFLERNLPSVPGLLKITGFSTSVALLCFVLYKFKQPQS
Briefly: fluorescent kynuramine MAO activity assay in crude mouse brain mitochondria.

Assay [3] deals with T2, MAO-A. In words: residual MAO-A activity at […], fluorescent kynuramine assay in crude mouse brain mitochondria. Conditions: read-out: MAO-A, % ± SD.
For assay [4], the target named is T1, MAO-B. Briefly: fluorescent kynuramine MAO activity assay in crude mouse brain mitochondria.

On to `C=C(CNc1ccc(C)cc1)[C@@H]1CC=C(C)[C@@H](O)[C@@H]1O` [compound 27, (1R,2R,6S)-3-Methyl-6-(3-(p-tolylamino)prop-1-en-2-yl)cyclohex-3-ene-1,2-diol], for which, at MAO-B [1], the activity at 100 µM worked out at 66 ± 0.1%.

In general, IC50 refers to the concentration needed to halve the response being measured. Turning to `C#CCN(C)CCCOc1ccc(Cl)cc1Cl` [clorgiline, reference compound], at MAO-A [2], the IC50 amounted to 0.00136 µM. In other words, the single-digit nanomolar range.

The compound `C=C(CNc1ccc(C)cc1C)[C@@H]1CC=C(C)[C@@H](O)[C@@H]1O` [compound 28, (1R,2R,6S)-6-(3-(2,4-Dimethylphenylamino)prop-1-en-2-yl)-3-methylcyclohex-3-ene-1,2-diol] displayed an IC50 on MAO-A [2] of 178 ± 44 µM.

In the case of `C=C(CNc1cccc(C(C)=O)c1)[C@@H]1CC=C(C)[C@@H](O)[C@@H]1O` [compound 31, 1-(3-(2-((1S,5R,6R)-5,6-Dihydroxy-4-methylcyclohex-3-enyl)allylamino)phenyl)ethanone], on MAO-B [1], the activity at 100 µM was 66 ± 2%.

Take `C=C(CNc1ccccc1C(C)=O)[C@@H]1CC=C(C)[C@@H](O)[C@@H]1O` [compound 30, 1-(2-(2-((1S,5R,6R)-5,6-Dihydroxy-4-methylcyclohex-3-enyl)allylamino)phenyl)ethanone]: at MAO-A [3], the activity at 100 µM came to 57 ± 1%. The 50% inhibitory concentration (IC50) on MAO-B [4] turned out to be 95 ± 5 µM.

(Values after article PMC11720030, “Inhibitory Activity of N- and S-Functionalized Monoterpene Diols Towards Monoamine Oxidases A and B” (International Journal of Molecular Sciences, 2024).)
